# Read-outs that look alike come from different tables or passages of the source.
# Tests used:
# Staphylococcus aureus [1] = assay: Inhibition zone, agar plate diffusion; assay type: cell-based; conditions: read-out: Inhibition zone (IZ)
# Method: (§1) Antimicrobial activities of the newly formed Schiff bases (6a–d, 7a–d, 8a–d, and 9a–d) and reference drugs were evaluated against three Gram-positive, three Gram-negative, and two fungi strain at Al-Azhar University, Cairo, Egypt. The inhibition zones (IZ, in mm ± standard deviation) and the minimal inhibitory concentration (MIC) (μg/mL) were determined by the conventional paper disk diffusion method.
# (§2) In Vitro Antimicrobial Activities
# (§3) The antimicrobial activities inhibition zone (IZ, mm±standard deviation) of pyrazole Schiff bases ( 6a-d , 7a-d, 8a-d and 9a-d ) was measurement according to the agar plate diffusion method. Briefly, 100 µl of the […]
# (§4) […] of each sample (at 0.5 mg/mL) was added to each well (10 mm diameter holes cut in the agar gel). The plates were incubated for 24 h at 37 °C (for bacteria and yeast) and for 72 h at 27 °C (for filamentous fungi), each test was repeated three times. After incubation, the microorganism's growth was observed. […]
# (§5) drugs while Amphotericin B was used as standard antifungal drug. The resulting inhibition zone diameters were measured in millimeters and used as criterion for the antimicrobial activity. Solvent controls (DMSO) were included in every experiment as negative controls. DMSO was used for dissolving […]
# (§6) the tested microorganisms. […]
# (§7) Bacteria were grown on nutrient agar medium, while fungi and yeast were grown on Sabouraud agar medium. […]
# Candida albicans [2] = assay: Inhibition zone, agar plate diffusion; assay type: cell-based; conditions: read-out: Inhibition zone (IZ)
# Method: as §1, §2, §3, §4, §5, §6, §7
# Salmonella typhi [3] = assay: Inhibition zone, agar plate diffusion; assay type: cell-based; conditions: Salmonella enterica, read-out: Inhibition zone (IZ)
# Method: as §1, §2, §3, §4, §5, §6, §7
# Fusarium oxysporum [4] = assay: Inhibition zone, agar plate diffusion; assay type: cell-based; conditions: read-out: Inhibition zone (IZ)
# Method: as §1, §2, §3, §4, §5, §6, §7
# Escherichia coli [5] = assay: Inhibition zone, agar plate diffusion; assay type: cell-based; conditions: read-out: Inhibition zone (IZ)
# Method: as §1, §2, §3, §4, §5, §6
# Enterococcus faecalis [6] = assay: Inhibition zone, agar plate diffusion; assay type: cell-based; conditions: read-out: Inhibition zone (IZ)
# Method: as §1, §2, §3, §4, §5, §6
# Bacillus subtilis [7] = assay: Inhibition zone, agar plate diffusion; assay type: cell-based; conditions: read-out: Inhibition zone (IZ)
# Method: as §1, §2, §3, §4, §5, §6
# Pseudomonas aeruginosa [8] = assay: Inhibition zone, agar plate diffusion; assay type: cell-based; conditions: read-out: Inhibition zone (IZ)
# Method: as §1, §2, §3, §4, §5, §6
# Staphylococcus aureus [9] = assay: MIC/MBC, paper disk diffusion; assay type: cell-based; conditions: Staphylococcus aureus, S. aureus
# Method: as §1
# (§8) In Vitro Antimicrobial Activities […]
# (§9) DMSO was used for dissolving […]
# (§10) the tested microorganisms.
# (§11) The minimum inhibitory concentration (MIC), the minimum bactericidal concentration (MBC, µg/ml) and […]
# (§12) and 9b) were determined by the conventional technique termed paper disk diffusion, by applying paper […]
# (§13) Bacteria were grown on nutrient agar medium, while fungi and yeast were grown on Sabouraud agar medium. The purified streptomycin was dissolved in […]
# (§14) inoculated with test organism. Growth inhibition was examined after 24 hr. from incubation at 37 °C for bacteria and after 72 hr. incubation at 27 °C for fungi and yeast. Each test was repeated three times. MIC was expressed as the lowest concentration inhibiting test organism’s growth. […]
# Escherichia coli [10] = assay: MIC/MBC, paper disk diffusion; assay type: cell-based; conditions: Escherichia coli, E. coli
# Method: as §1, §8, §9, §10, §11, §12, §13, §14
# Enterococcus faecalis [11] = assay: MIC/MBC, paper disk diffusion; assay type: cell-based; conditions: E. faecalis
# Method: as §1, §8, §9, §10, §11, §12, §13, §14
# Bacillus subtilis [12] = assay: MIC/MBC, paper disk diffusion; assay type: cell-based; conditions: Bacillus subtilis, B. subtilis; read-out: MBC
# Method: as §1, §8, §9, §10, §11, §12, §13, §14
# Salmonella typhi [13] = assay: MIC/MBC, paper disk diffusion; assay type: cell-based; conditions: Salmonella enterica, TYPHI
# Method: as §1, §8, §9, §10, §11, §12, §13, §14
# Pseudomonas aeruginosa [14] = assay: MIC/MBC, paper disk diffusion; assay type: cell-based; conditions: Pseudomonas aeruginosa, P. aeruginosa
# Method: as §1, §8, §9, §10, §11, §12, §13, §14
# Candida albicans [15] = assay: MIC/MFC, paper disk diffusion; assay type: cell-based; conditions: Candida albicans, C. albicans
# Method: as §1, §8, §9, §10, §11, §12, §13, §14
# Fusarium oxysporum [16] = assay: MIC/MFC, paper disk diffusion; assay type: cell-based; conditions: Fusarium oxysporum, F. oxysporum
# Method: as §1, §8, §9, §10, §11, §12, §13, §14
# [17] = test system: mammary gland breast cancer cell line (MCF-7); assay: Antiproliferative activity, MTT assay; assay type: cell-based, human; conditions: Homo sapiens, MCF7; MTT, 48 h; read-out: IC50 MCF-7
# Method: (§15) 3-[4, 5-Dimethyl-2-thiazolyl)-2, 5-diphenyl-2 H-tetrazolium bromide (MTT) protocol is based on the cleavage of the tetrazolium salt by mitochondrial dehydrogenases in viable cells. Cells were dispensed in a 96 well sterile microplate (5 x 10^4 cells/well), and incubated at 37 °C with series of different concentrations, in DMSO, of each tested compound or Doxorubicin ® (positive control) for 48 h in a serum free medium prior to the MTT assay. After incubation, media were carefully removed, 40 µL of MTT (2.5 mg/mL) were added to each well and then incubated for an additional 4 h. The purple formazan dye crystals were solubilized by the addition of 200 µL of DMSO. The absorbance was measured at 590 nm using a SpectraMax® Paradigm® Multi-Mode microplate reader. The relative cell viability was expressed as the mean percentage of viable cells compared to the untreated control cells.
# (§16) All experiments were conducted in triplicate and repeated in three different days. All the values were represented as mean ± SD. IC 50s were determined by probit analysis using SPSS software program (SPSS
# [18] = test system: hepatocellular carcinoma cell line (HepG2); assay: Antiproliferative activity, MTT assay; assay type: cell-based, human; conditions: Homo sapiens, HepG2; MTT, 48 h; read-out: IC50 HepG-2
# Method: as §15, §16
# [19] = St, mm ± standard deviation, sample at 0.5 mg/mL
# [20] = Sa, mm ± standard deviation, sample at 0.5 mg/mL
# [21] = Ca, mm ± standard deviation, sample at 0.5 mg/mL
# [22] = Fo, mm ± standard deviation, sample at 0.5 mg/mL
# [23] = Ec, mm ± standard deviation, sample at 0.5 mg/mL
# [24] = Ef, mm ± standard deviation, sample at 0.5 mg/mL
# [25] = Bs, mm ± standard deviation, sample at 0.5 mg/mL
# [26] = Pa, mm ± standard deviation, sample at 0.5 mg/mL
SMILES,zone of inhibition at 500 µg/mL (Staphylococcus aureus [1]) [mm],zone of inhibition at 500 µg/mL (Candida albicans [2]) [mm],zone of inhibition at 500 µg/mL (Salmonella typhi [3]; [19]) [mm],zone of inhibition at 500 µg/mL (Fusarium oxysporum [4]) [mm],zone of inhibition at 500 µg/mL (Escherichia coli [5]) [mm],zone of inhibition at 500 µg/mL (Enterococcus faecalis [6]) [mm],zone of inhibition at 500 µg/mL (Bacillus subtilis [7]) [mm],zone of inhibition at 500 µg/mL (Pseudomonas aeruginosa [8]) [mm],also measured
"COc1ccc(Nc2n[nH]c(N=Cc3c(C)nn(-c4ccccc4)c3Cl)c2C(=O)Nc2ccc(Cl)cc2)cc1 [7d, 5-((5-Chloro-3-methyl-1-phenyl-1H-pyrazol-4-yl)methyleneamino)-N-(p-chlorophenyl)-3-(p-methoxyphenylamino)-1H-pyrazole-4-carboxamide]",24 ± 0.33,20 ± 0.5,17 ± 0.12,15 ± 0.14,27 ± 0.3,22 ± 0.35,23 ± 0.22,17 ± 0.74,–
"COc1ccc(Nc2n[nH]c(N=Cc3ccc(N4CCCCC4)cc3)c2C(=O)Nc2ccc(C)cc2)cc1 [8c, 3-(p-Methoxyphenylamino)-5-(4-(piperidin-1-yl)benzylideneamino)-N-p-tolyl-1H-pyrazole-4-carboxamide]",17 ± 0.78,19 ± 0.65,14 ± 0.52,< 8,18 ± 0.3,25 ± 0.14,22 ± 0.41,< 8,–
"COc1ccc(Nc2n[nH]c(N=Cc3ccc(N4CCCCC4)cc3)c2C(=O)Nc2ccccc2)cc1 [8b, 3-(p-Methoxyphenylamino)-N-phenyl-5-(4-(piperidin-1-yl)benzylideneamino)-1H-pyrazole-4-carboxamide]",< 8,12 ± 0.65,15 ± 0.2,< 8,14 ± 0.21,12 ± 0.74,15 ± 0.45,< 8,–
"CN(C)[C@@H]1C(O)=C(C(N)=O)C(=O)[C@@]2(O)C(O)=C3C(=O)c4c(O)cccc4[C@@](C)(O)[C@H]3C[C@@H]12 [Tetracycline, reference compound]",–,–,–,–,–,–,–,–,MBC (Staphylococcus aureus [9]; read-out: MBC): 87.5 µg/mL; MIC (Staphylococcus aureus [9]; read-out: MIC): 62.5 µg/mL; MBC (Escherichia coli [10]; read-out: MBC): 18.7 µg/mL; MIC (Escherichia coli [10]; read-out: MIC): 15.6 µg/mL; MBC (Enterococcus faecalis [11]; read-out: MBC): 93.8 µg/mL; MIC (Enterococcus faecalis [11]; read-out: MIC): 62.5 µg/mL; MBC (Bacillus subtilis [12]): 40.6 µg/mL; MBC (Salmonella typhi [13]): 43.8 µg/mL; MBC (Pseudomonas aeruginosa [14]; read-out: MBC): 87.5 µg/mL; MIC (Pseudomonas aeruginosa [14]; read-out: MIC): 62.5 µg/mL; zone of inhibition at 500 µg/mL (Staphylococcus aureus [1]; [20]): 25 ± 0.11 mm; zone of inhibition at 500 µg/mL (Candida albicans [2]; [21]): < 8 mm; zone of inhibition at 500 µg/mL (Salmonella typhi [3]): 21 ± 0.55 mm; zone of inhibition at 500 µg/mL (Fusarium oxysporum [4]; [22]): < 8 mm; zone of inhibition at 500 µg/mL (Escherichia coli [5]; [23]): 23 ± 0.2 mm; zone of inhibition at 500 µg/mL (Enterococcus faecalis [6]; [24]): 22 ± 0.25 mm; zone of inhibition at 500 µg/mL (Bacillus subtilis [7]; [25]): 25 ± 0.22 mm; zone of inhibition at 500 µg/mL (Pseudomonas aeruginosa [8]; [26]): 20 ± 0.5 mm
"COc1ccc(Nc2n[nH]c(N=Cc3c(C)n(C)n(-c4ccccc4)c3=O)c2C(=O)Nc2ccc(Cl)cc2)cc1 [6d, N-(4-Chlorophenyl)-5-((1,5-dimethyl-3-oxo-2-phenyl-2,3-dihydro-1H-pyrazol-4-yl)methyleneamino)-3-(p-methoxyphenylamino)-1H-pyrazole-4-carboxamide]",< 8,13 ± 0.2,< 8,< 8,19 ± 0.33,14 ± 0.47,13 ± 0.41,12 ± 0.63,–
"C[C@@H]1[C@H](O)[C@@H](C)/C=C/C=C/C=C/C=C/C=C/C=C/C=C/[C@H](O[C@@H]2O[C@H](C)[C@@H](O)[C@H](N)[C@@H]2O)C[C@@H]2O[C@](O)(C[C@@H](O)C[C@@H](O)[C@H](O)CC[C@@H](O)C[C@@H](O)CC(=O)O[C@H]1C)C[C@H](O)[C@H]2C(=O)O [Amphotericin B, reference compound]",–,–,< 8,–,–,–,–,–,zone of inhibition at 500 µg/mL (Staphylococcus aureus [1]; [20]): < 8 mm; zone of inhibition at 500 µg/mL (Candida albicans [2]; [21]): 22 ± 0.2 mm; zone of inhibition at 500 µg/mL (Fusarium oxysporum [4]; [22]): 18 ± 0.32 mm; zone of inhibition at 500 µg/mL (Escherichia coli [5]; [23]): < 8 mm; zone of inhibition at 500 µg/mL (Enterococcus faecalis [6]; [24]): < 8 mm; zone of inhibition at 500 µg/mL (Bacillus subtilis [7]; [25]): < 8 mm; zone of inhibition at 500 µg/mL (Pseudomonas aeruginosa [8]; [26]): < 8 mm; MFC (Candida albicans [15]; read-out: MFC): 34.6 µg/mL; MIC (Candida albicans [15]; read-out: MIC): 15.6 µg/mL; MFC (Fusarium oxysporum [16]; read-out: MFC): 65.6 µg/mL; MIC (Fusarium oxysporum [16]; read-out: MIC): 31.2 µg/mL
"COc1cccc2c1C(=O)c1c(O)c3c(c(O)c1C2=O)C[C@@](O)(C(=O)CO)C[C@@H]3O[C@H]1C[C@H](N)[C@H](O)[C@H](C)O1 [Doxorubicin, reference compound]",–,–,–,–,–,–,–,–,IC50 [17]: 1940 ± 800 nM; IC50 [18]: 3920 ± 500 nM
"COc1ccc(Nc2n[nH]c(N=Cc3c(C)n(C)n(-c4ccccc4)c3=O)c2C(=O)Nc2ccc(C)cc2)cc1 [6c, 5-((1,5-Dimethyl-3-oxo-2-phenyl-2,3-dihydro-1H-pyrazol-4-yl)methyleneamino)-3-(p-methoxyphenylamino)-N-p-tolyl-1H-pyrazole-4-carboxamide]",23 ± 0.29,17 ± 0.21,15 ± 0.36,9 ± 0.35,22 ± 0.43,21 ± 0.54,20 ± 0.11,< 8,–
